Where a SMILES comes first, the peptide text is derived from it. Bridges are numbered along the chain shown (N, C = ends). The star is where a group is joined. X1 = CC(C)Cc1ccc([C@@H](C)C(=O)*)cc1
Key:
[1] = Clearance in male New Zealand white rabbits after administration via an indwelling catheter in an ear vein at 4.9 mg/kg; assay type: ADME, organism-based, Oryctolagus cuniculus; set-up: dose 4.9 mg/kg; settings: rabbit, in vivo, iv
Albumin = Albumin (Homo sapiens, UniProt P02768); experiment: In vitro binding affinity for human serum albumin.; set-up: unit not given here
[2] = Clearance in male New Zealand white rabbits after i.v. administration at 2.0 mg/kg; assay type: ADME, organism-based, Oryctolagus cuniculus; set-up: dose 2 mg/kg, route intravenous; settings: rabbit, in vivo, iv
[3] = Mean retention time in male New Zealand white rabbits after i.v. administration at 2.0 mg/kg; assay type: ADME, organism-based, Oryctolagus cuniculus; set-up: dose 2 mg/kg, route intravenous; settings: rabbit, in vivo, iv
Coagulation factor VII = target: T1, Coagulation factor VII (Homo sapiens, UniProt P08709); experiment: Inhibition of amino terminally biotinylated E-76 peptide binding to immobilized fVIIa
T1 sequence (P08709 whole entry): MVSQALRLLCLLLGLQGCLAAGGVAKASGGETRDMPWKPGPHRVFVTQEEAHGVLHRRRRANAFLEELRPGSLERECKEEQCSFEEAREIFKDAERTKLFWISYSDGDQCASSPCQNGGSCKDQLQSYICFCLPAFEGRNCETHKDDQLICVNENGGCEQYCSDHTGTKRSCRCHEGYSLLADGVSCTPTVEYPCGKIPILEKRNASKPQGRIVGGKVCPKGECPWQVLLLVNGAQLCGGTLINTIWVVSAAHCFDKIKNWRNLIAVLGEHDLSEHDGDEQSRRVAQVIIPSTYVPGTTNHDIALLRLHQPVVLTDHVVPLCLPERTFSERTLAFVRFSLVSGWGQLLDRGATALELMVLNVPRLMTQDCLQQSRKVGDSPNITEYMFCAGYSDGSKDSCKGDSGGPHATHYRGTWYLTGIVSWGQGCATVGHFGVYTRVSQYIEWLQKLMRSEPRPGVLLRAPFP

[4] = Plasma half-life in male New Zealand white rabbits after administration via an indwelling catheter in an ear vein at 4.9 mg/kg; assay type: ADME, organism-based, Oryctolagus cuniculus; set-up: dose 4.9 mg/kg; settings: rabbit, iv
[5] = Mean retention time in male New Zealand white rabbits after administration via an indwelling catheter in an ear vein at 4.9 mg/kg; assay type: ADME, organism-based, Oryctolagus cuniculus; set-up: dose 4.9 mg/kg; settings: rabbit, in vivo, iv
[6] = Plasma half-life in male New Zealand white rabbits after i.v. administration at 2.0 mg/kg; assay type: ADME, organism-based, Oryctolagus cuniculus; set-up: dose 2 mg/kg, route intravenous; settings: rabbit, iv

Sequence of Albumin (P02768 whole entry): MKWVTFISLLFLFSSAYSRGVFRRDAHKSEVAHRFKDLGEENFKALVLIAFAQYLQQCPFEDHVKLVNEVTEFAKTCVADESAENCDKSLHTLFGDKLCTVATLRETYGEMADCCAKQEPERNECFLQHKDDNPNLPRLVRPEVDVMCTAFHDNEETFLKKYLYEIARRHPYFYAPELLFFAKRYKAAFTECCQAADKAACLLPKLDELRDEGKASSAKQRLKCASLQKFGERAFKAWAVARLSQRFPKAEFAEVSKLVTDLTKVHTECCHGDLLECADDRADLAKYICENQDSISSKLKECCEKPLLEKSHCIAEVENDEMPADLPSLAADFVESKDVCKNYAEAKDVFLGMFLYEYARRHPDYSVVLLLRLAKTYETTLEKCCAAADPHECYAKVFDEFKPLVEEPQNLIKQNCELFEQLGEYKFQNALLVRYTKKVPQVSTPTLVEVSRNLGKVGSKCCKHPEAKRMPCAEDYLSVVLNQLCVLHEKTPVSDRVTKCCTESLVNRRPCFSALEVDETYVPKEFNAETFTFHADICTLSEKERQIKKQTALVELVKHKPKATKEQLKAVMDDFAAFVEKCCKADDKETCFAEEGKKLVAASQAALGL

clearance [1]: 1.5 mL/min/kg | Binding affinity (Albumin): 0.76 | clearance [2]: 1.8 mL/min/kg | MRT [3]: 19 min | IC50 (Coagulation factor VII): 14.6 nM | half-life [4]: 24 min | MRT [5]: 33 min | half-life [6]: 17 min
Compound: CC[C@H](C)[C@@H]1NC(=O)[C@H](CCCN=C(N)N)NC(=O)[C@@H]2CCCN2C(=O)[C@H](CC(N)=O)NC(=O)[C@H](CC(=O)O)NC(=O)[C@@H](NC(=O)[C@H](CC(C)C)NC(=O)[C@H](C)NC(=O)[C@H](C)c2ccc(CC(C)C)cc2)CSSC[C@@H](C(=O)N[C@@H](CCC(N)=O)C(=O)N[C@@H](Cc2ccccc2)C(=O)N[C@H](C(=O)N[C@@H](CCC(=O)O)C(=O)NCC(N)=O)C(C)C)NC(=O)[C@H](Cc2ccc(O)cc2)NC(=O)[C@H](Cc2c[nH]c3ccccc23)NC(=O)[C@H](CCCN=C(N)N)NC(=O)[C@H](CC(=O)O)NC1=O (X1-ALCDNPRIDRWYCQFVEG-NH2; disulfide 3-13)
